Experimental data as given in PubChem BioAssay (NCI).
“And” between values parts separate entries of the source, which are not always exact repeats. Equal entries are not always repeated.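 Results reflect a 48-hour exposure of cells in 96-well plates to compound at five concentrations. TGI is the concentration that stops growth completely.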

How the values were obtained:
Test in all cases: NCI-60 cell line screen, 48 h
NCI-H522 lung = test system: NCI-H522 lung
NCI-H460 lung = test system: NCI-H460 lung
BT-549 breast = test system: BT-549 breast
MOLT-4 leukemia = test system: MOLT-4 leukemia
SK-MEL-2 melanoma = test system: SK-MEL-2 melanoma
SW-620 colon = test system: SW-620 colon
K-562 leukemia = test system: K-562 leukemia
HOP-92 NSCLC = test system: HOP-92 NSCLC
UACC-62 melanoma = test system: UACC-62 melanoma
SNB-75 CNS = test system: SNB-75 CNS

Row | SMILES | TGI (NCI-H522 lung) | TGI (NCI-H460 lung) | TGI (BT-549 breast) | TGI (MOLT-4 leukemia) | TGI (SK-MEL-2 melanoma) | TGI (SW-620 colon) | TGI (K-562 leukemia) | TGI (HOP-92 NSCLC) | TGI (UACC-62 melanoma) | TGI (SNB-75 CNS)
1 | CCOc1cc(C2SCC(=O)N2c2nc3cc4sc(N5C(=O)CSC5c5ccc(O)c(OCC)c5)nc4cc3s2)ccc1O (stereo not given) | > 100 µM | > 27.5 µM | > 85.4 µM | > 100 µM | > 100 µM | > 100 µM | > 100 µM | > 88.6 µM | > 100 µM | > 100 µM
2 | O=[N+]([O-])c1ccc(Cl)cc1C=NC12CC3CC(CC(C3)C1)C2 | > 100 µM | > 100 µM | > 100 µM | 63.4 µM | > 100 µM | > 100 µM | 43 µM | > 100 µM | > 100 µM | > 100 µM
3 | C/C=C\C(CC(=O)NCCC1CN(C(=O)c2ccccc2)c2ccccc21)CC(=O)OC (stereo not given) | > 100 µM | > 100 µM | > 100 µM | > 100 µM | > 100 µM | > 100 µM | > 100 µM | > 100 µM | > 100 µM | > 100 µM
4 | CC(C)(C)c1cc(C2COC(=O)COCC(=O)OCCOCCOCCO2)cc(C(C)(C)C)c1O (stereo not given) | > 100 µM | 98.5 µM | > 100 µM | > 100 µM | 90.3 µM | > 100 µM | > 100 µM | 59.3 µM | > 69.1 µM | 37 µM
5 | NC(=O)CS(=O)CC(N)C(=O)O (stereo not given) | > 100 µM | > 100 µM | > 100 µM | > 100 µM | > 100 µM | > 100 µM | > 100 µM | > 100 µM | > 100 µM | > 100 µM
6 | O=C1C[C@H](c2ccccc2)C2(C(=O)c3ccccc3C2=O)[C@H](c2ccccc2)C1 | > 100 µM | > 100 µM | > 100 µM | > 100 µM | > 100 µM | – | > 100 µM | > 100 µM | > 100 µM | > 100 µM
7 | CCC(C)C1(O)OC2CC3(C)OC(=CC3=O)/C(C)=C\C3OC(=O)C1(C)C32 (stereo not given) | 14.3 µM | 57.9 µM | 12.8 µM | > 100 µM | 96.5 µM | – | > 100 µM | 31.3 µM | 35.3 µM | > 100 µM
8 | O=C1O[C@]2(c3ccccc3)C(c3ccccc3)=C[C@]2(C(=O)c2ccccc2)C1=O | 48.5 µM | 71.6 µM | > 100 µM | 22.3 µM | 74.6 µM | 45.1 µM | 54.3 µM | 64.8 µM | > 100 µM | > 100 µM
9 | O=C(OCc1ccccc1)N1c2cc([N+](=O)[O-])ccc2C(=O)N2CCC[C@H]2C1O (stereo not given in full) | > 100 µM | > 100 µM | > 100 µM | > 100 µM | > 100 µM | > 100 µM | > 100 µM | > 100 µM | > 100 µM | > 100 µM
10 | CC1CCC2(CC1)N=C1CCC(C)CC1C1(CCC(C)CC1)N2 (stereo not given) | > 100 µM | > 100 µM | > 100 µM | 95.3 µM | > 100 µM | > 100 µM | > 100 µM | > 100 µM | > 100 µM | > 100 µM
11 | C#CCOC(=O)C(N)CCCN=C(N)N (stereo not given) | > 100 µM | > 100 µM | > 100 µM | > 100 µM | > 100 µM | > 100 µM | – | > 100 µM | – | > 100 µM
12 | Nc1c(S(=O)(=O)O)cc(Nc2cccc(S(=O)(=O)/C=C/S(=O)(=O)O)c2)c2c1C(=O)c1ccccc1C2=O | > 100 µM | > 100 µM | > 100 µM | > 100 µM | > 100 µM | > 100 µM | > 100 µM | > 100 µM | > 100 µM | > 100 µM
13 | COc1ccc(/C=N/n2c(Cc3ccc(Cl)cc3)n[nH]c2=O)c(OC)c1 | 37.4 µM | > 100 µM | 67 µM | > 100 µM | > 100 µM | > 100 µM | > 100 µM | 65.9 µM | 66.6 µM | 37.5 µM
14 | O=c1[nH]c2ccccc2c2oc(-c3ccccc3)nc12 | > 100 µM | > 100 µM | > 100 µM | 87.8 µM | > 100 µM | 58.1 µM | > 100 µM | 56.7 µM | > 100 µM | 45.8 µM
15 | NCCCCNC1(c2cc3ccccc3s2)CCCCC1 | 6.19 µM | 7.42 µM | 25.4 µM | 8.37 µM | 3.58 µM | 14.6 µM | 3.56 µM | 20.8 µM | 3.79 µM | 9.9 µM
16 | COc1cc(-c2nc3nc(N4CCN(C)CC4)ccc3[nH]2)c(OC)c2[nH]c(COC(C)=O)nc12 | > 100 µM | 99.3 µM | > 100 µM | – | 47.4 µM | > 100 µM | > 100 µM | > 100 µM | > 100 µM | > 100 µM
17 | COc1ccc(C2=CN3CCC[C@H]3C=C2c2cc(O)c(OC)c(OC)c2)cc1OC | 0.026 µM | 0.0267 µM and 0.0127 µM | 0.331 µM | 0.183 µM and 0.393 µM | 0.0161 µM | 0.0578 µM and 0.0206 µM | 0.244 µM and 0.173 µM | 0.0294 µM | 0.0336 µM | 0.00947 µM
18 | Cc1cccc2c1C/C(=C\c1cccc(C)c1C(=O)O)C2=O | > 100 µM | > 100 µM | > 100 µM | > 100 µM | > 100 µM | > 100 µM | > 100 µM | > 100 µM | > 100 µM | > 100 µM
19 | CC(C)(C)OC(=O)NCC(=O)N1CCCN(C(=O)CNC(=O)OC(C)(C)C)CC1 | > 100 µM | > 100 µM | > 100 µM | > 100 µM | > 100 µM | > 100 µM | > 100 µM | > 100 µM | > 100 µM | > 100 µM
20 | O=C(NN1C(=O)C=CC1=O)c1ccccc1Nc1ccccc1C(=O)NN1C(=O)C=CC1=O | > 100 µM | > 100 µM | > 100 µM | > 100 µM | > 100 µM | > 100 µM | > 100 µM | > 100 µM | > 100 µM | > 100 µM
21 | CC(C)CCC/C(CBr)=C(\Cl)CCl | 0.409 µM | 18.5 µM | 3.52 µM | 2.88 µM | 2.97 µM | 3.07 µM | – | 4.54 µM | – | 4.71 µM
22 | CCOC(=O)C(C)c1nc2cc(N3CCN(C)CC3)c(F)cc2[nH]c1=O (stereo not given) | > 100 µM | > 100 µM | > 100 µM | > 100 µM | > 100 µM | > 100 µM | > 100 µM | > 100 µM | > 100 µM | > 100 µM
23 | CC(=O)NC1=CC(=O)c2cc(C)cc(O)c2C1=O | 20.2 µM | 36.1 µM | 18.9 µM | 24.2 µM | 17.9 µM | 10.6 µM | 14.7 µM | 22.7 µM | 4.71 µM | 37 µM
24 | CC(=O)NC1=C(C)C(=O)c2c(nc3n2CC[C@H]3OC(C)=O)C1=O | 3.73 µM | 9.11 µM | 3.01 µM | – | 3.52 µM | 3.26 µM | > 100 µM | 1.83 µM | 3.77 µM | 9.18 µM
25 | N#Cc1nc(/C=C/c2ccccc2)oc1N | > 100 µM | > 100 µM | > 100 µM | > 100 µM | > 100 µM | > 100 µM | > 100 µM | > 100 µM | – | > 100 µM
26 | O=C(c1ccccc1)N1C(=S)N(c2ccc([N+](=O)[O-])cc2)C(=Nc2ccccc2)C1=Nc1ccccc1 | > 100 µM | > 100 µM | > 100 µM | > 100 µM | > 100 µM | > 100 µM | > 100 µM | > 100 µM | > 100 µM | > 100 µM
27 | O=C1C(N=Nc2ccc(-c3nc4ccccc4[nH]3)cc2)NC(=S)N1c1ccccc1 (stereo not given) | > 100 µM | > 100 µM | > 100 µM | 48.8 µM | > 100 µM | 80.1 µM | 35.8 µM | > 100 µM | > 100 µM | > 100 µM
28 | CCOC(=O)C(NCc1cccc(C(F)(F)F)c1)(NC(=O)c1ccccc1)C(F)(F)F (stereo not given) | 50.4 µM | – | 56.1 µM | > 100 µM | > 100 µM | > 100 µM | > 100 µM | 64.7 µM | 30.9 µM | 93.3 µM
